The test system of assay [1] is all three human trypsins. Set-up: method as in PMID 28463992. As to conditions: equally inhibits all three human trypsins; cited from earlier work.
For assay [2], the target named is T1, human Factor Xa (Homo sapiens, UniProt P00742).
T1 construct: purchased Sigma
As to the kind of experiment: Serine protease inhibition, chromogenic substrate S-2222. Format: biochemical. Particulars: read-out: IC50, human Factor Xa. The procedure: (§1) Recombinant trypsinogens-1, -2, and -3 were produced inEscherichia coliand activated to trypsin-1, -2, and -3 as described previously.[45] The enzyme inhibitory activity of suomilide was determined in 96-well plates by adding 10 μL of diluted suomilide (0.21–3400 nM, diluted in ultra-purified water, containing up to 0.027% DMSO), 15 μL of 0.1% bovine serum albumin in 50 mM Tris-buffer saline (BSA/TBS), and 25 μL of each trypsin (1.88 nM). 10 μL of ultra-purified water was used as a control. […] Preincubation of suomilide with trypsin isoenzymes prior to the addition of the substrate was required for maximal inhibition (data not shown). Thus, suomilide was preincubated with trypsins at room temperature for 30 min before the addition of 50 μL of 0.2 mM chromogenic substrate S-2222 (ChromogeniX) in ultra-purified water. The change of absorbance at 405 nm was followed for 15 min (VICTOR X4 multilabel plate reader, PerkinElmer). The experiment was performed three times, each with two replicates (n = 3). The absorbance change during the phase of the substrate reaction in which the absorbance of the control reaction increased linearly over time was determined. The same experiment was performed with plasmin (Sigma) (15 nM) with chromogenic substrate S-2251 (ChromogeniX); plasma KLK (Sigma) (20 nM) with substrate ChromogeniX S-2302 (ChromogeniX); Factor Xa (Sigma) (3 nM) with substrate S-2222; and thrombin (Sigma) (1 nM) with substrate S-2238 (ChromogeniX). Except for urokinase from human kidney cells (Sigma) (125 IU), 15 μL of BSA/TBS with 0.9% NaCl was used. Nine 4-fold dilutions of suomilide were prepared, with 12.5 μM being the highest final concentration. The IC50 values were estimated using Quest Graph, and the standard error was calculated using MS Excel 2013.

Assay [3] has as its target T2, recombinant human trypsin-2 (Homo sapiens, UniProt P07478).
T2 construct: made in house; host or cells: Escherichia coli
The assay is described as above. The class given is biochemical. Particulars: read-out: IC50, trypsin-2; 30 min preincubation, substrate S-2222, n = 3. The procedure:
as §1

Assay [4] deals with T3, trypsin-1 (Homo sapiens, UniProt P07477).
T3 construct: made in house; host or cells: Escherichia coli
Described as above. Format: biochemical. Particulars: read-out: IC50, trypsin-1; 30 min preincubation, substrate S-2222, n = 3. The procedure: as §1

Assay [5] addresses T4, trypsin-3 (Homo sapiens, UniProt P35030).
T4 construct: made in house; host or cells: Escherichia coli
T4 sequence (P35030 81-304 limits assumed): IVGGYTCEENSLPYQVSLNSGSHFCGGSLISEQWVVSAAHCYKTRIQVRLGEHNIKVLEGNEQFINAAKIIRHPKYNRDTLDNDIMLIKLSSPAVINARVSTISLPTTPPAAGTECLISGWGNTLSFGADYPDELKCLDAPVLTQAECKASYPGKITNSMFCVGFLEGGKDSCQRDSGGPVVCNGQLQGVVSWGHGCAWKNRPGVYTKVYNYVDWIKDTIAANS
Described as above. The class given is biochemical. Particulars: read-out: IC50, trypsin-3; 30 min preincubation, substrate S-2222, n = 3. As for the experimental part:
as §1

In assay [6] the target is T5, human plasmin (Homo sapiens, UniProt P00747).
T5 construct: purchased Sigma
T5 sequence (P00747 581-810 limits assumed): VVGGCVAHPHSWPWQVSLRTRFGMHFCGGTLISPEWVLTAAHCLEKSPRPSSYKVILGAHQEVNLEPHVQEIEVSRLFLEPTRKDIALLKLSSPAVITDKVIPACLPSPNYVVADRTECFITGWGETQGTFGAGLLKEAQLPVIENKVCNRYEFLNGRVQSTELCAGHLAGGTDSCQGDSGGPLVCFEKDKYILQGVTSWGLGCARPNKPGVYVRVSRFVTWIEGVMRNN
T5 sequence (P00747 97-580 partner limits assumed): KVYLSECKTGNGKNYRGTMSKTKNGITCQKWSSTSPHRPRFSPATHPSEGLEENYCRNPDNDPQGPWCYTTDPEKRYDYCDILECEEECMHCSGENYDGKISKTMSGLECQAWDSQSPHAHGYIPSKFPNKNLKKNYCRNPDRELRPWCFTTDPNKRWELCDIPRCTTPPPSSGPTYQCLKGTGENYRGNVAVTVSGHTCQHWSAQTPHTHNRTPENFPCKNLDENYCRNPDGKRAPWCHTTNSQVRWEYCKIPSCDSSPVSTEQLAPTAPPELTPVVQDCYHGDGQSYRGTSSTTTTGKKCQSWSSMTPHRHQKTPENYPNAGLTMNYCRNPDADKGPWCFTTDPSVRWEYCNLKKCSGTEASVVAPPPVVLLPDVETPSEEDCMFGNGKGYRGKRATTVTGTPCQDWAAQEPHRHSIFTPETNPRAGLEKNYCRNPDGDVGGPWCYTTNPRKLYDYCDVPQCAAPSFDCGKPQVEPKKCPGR
As to the kind of experiment: Serine protease inhibition, chromogenic substrate S-2251. Particulars: read-out: IC50, human plasmin. Format: biochemical. The procedure:
as §1, with “The same experiment was performed with plasmin (Sigma) (15 nM) with chromogenic substrate S-2251 (ChromogeniX); plasma KLK (Sigma) (20 nM) with substrate ChromogeniX S-2302 (ChromogeniX); Factor Xa (Sigma) (3 nM) with substrate S-2222; and thrombin (Sigma) (1 nM) with substrate S-2238 (ChromogeniX). Except for urokinase from human kidney cells (Sigma) (125 IU), 15 μL of BSA/TBS with 0.9% NaCl was used. Nine 4-fold dilutions of suomilide were prepared, with 12.5 μM being the highest final concentration.” left out

The target in assay [7] is T6, human plasma kallikrein (Homo sapiens, UniProt P03952).
T6 construct: purchased Sigma
T6 sequence (P03952 391-638 limits assumed): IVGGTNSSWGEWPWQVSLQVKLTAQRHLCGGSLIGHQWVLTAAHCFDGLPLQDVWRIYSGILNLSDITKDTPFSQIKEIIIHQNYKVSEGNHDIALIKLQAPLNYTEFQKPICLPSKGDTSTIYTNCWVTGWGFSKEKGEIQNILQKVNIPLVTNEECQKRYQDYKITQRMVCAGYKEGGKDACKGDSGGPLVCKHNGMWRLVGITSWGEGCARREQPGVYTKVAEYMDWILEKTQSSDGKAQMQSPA
T6 sequence (P03952 20-390 partner limits assumed): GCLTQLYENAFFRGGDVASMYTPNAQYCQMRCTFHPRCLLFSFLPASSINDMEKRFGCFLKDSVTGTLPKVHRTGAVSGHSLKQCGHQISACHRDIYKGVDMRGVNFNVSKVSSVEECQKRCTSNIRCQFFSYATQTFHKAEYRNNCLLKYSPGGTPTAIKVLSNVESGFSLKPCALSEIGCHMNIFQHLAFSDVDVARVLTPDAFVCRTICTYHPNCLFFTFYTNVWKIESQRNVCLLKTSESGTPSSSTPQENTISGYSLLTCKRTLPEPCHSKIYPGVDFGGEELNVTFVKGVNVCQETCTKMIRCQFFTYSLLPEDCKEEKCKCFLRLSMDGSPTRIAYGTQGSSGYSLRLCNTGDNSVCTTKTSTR
Description: Serine protease inhibition, chromogenic substrate S-2302. The class given is biochemical. As to conditions: read-out: IC50, human plasma kallikrein. The procedure: as §1, with “The same experiment was performed with plasmin (Sigma) (15 nM) with chromogenic substrate S-2251 (ChromogeniX); plasma KLK (Sigma) (20 nM) with substrate ChromogeniX S-2302 (ChromogeniX); Factor Xa (Sigma) (3 nM) with substrate S-2222; and thrombin (Sigma) (1 nM) with substrate S-2238 (ChromogeniX). Except for urokinase from human kidney cells (Sigma) (125 IU), 15 μL of BSA/TBS with 0.9% NaCl was used. Nine 4-fold dilutions of suomilide were prepared, with 12.5 μM being the highest final concentration.” left out

Assay [8] concerns the target T7, human urokinase (Homo sapiens, UniProt P00749).
T7 construct: purchased Sigma; host or cells: human kidney cells
Description: Serine protease inhibition, urokinase from human kidney cells. The class given is biochemical. As to conditions: read-out: IC50, human urokinase. As for the experimental part:
as §1, with “The same experiment was performed with plasmin (Sigma) (15 nM) with chromogenic substrate S-2251 (ChromogeniX); plasma KLK (Sigma) (20 nM) with substrate ChromogeniX S-2302 (ChromogeniX); Factor Xa (Sigma) (3 nM) with substrate S-2222; and thrombin (Sigma) (1 nM) with substrate S-2238 (ChromogeniX). Except for urokinase from human kidney cells (Sigma) (125 IU), 15 μL of BSA/TBS with 0.9% NaCl was used. Nine 4-fold dilutions of suomilide were prepared, with 12.5 μM being the highest final concentration.” left out

The target of assay [9] is T8, human thrombin (Homo sapiens, UniProt P00734).
T8 construct: purchased Sigma
As to the kind of experiment: Serine protease inhibition, chromogenic substrate S-2238. The class given is biochemical. Particulars: read-out: IC50, human thrombin, highest final concentration 12.5 μM. As for the experimental part: as §1, with “The same experiment was performed with plasmin (Sigma) (15 nM) with chromogenic substrate S-2251 (ChromogeniX); plasma KLK (Sigma) (20 nM) with substrate ChromogeniX S-2302 (ChromogeniX); Factor Xa (Sigma) (3 nM) with substrate S-2222; and thrombin (Sigma) (1 nM) with substrate S-2238 (ChromogeniX). Except for urokinase from human kidney cells (Sigma) (125 IU), 15 μL of BSA/TBS with 0.9% NaCl was used. Nine 4-fold dilutions of suomilide were prepared, with 12.5 μM being the highest final concentration.” left out

Assay [10] addresses T3, trypsin-1. As to the kind of experiment: Surface plasmon resonance (Biacore) kinetic analysis. Format: binding. Particulars: SPR. As for the experimental part:
(§2) The binding of suomilide to trypsin-1 and -3 was analyzed with surface plasmon resonance in Biacore 2000 instrumentation (Cytiva). […] The binding was analyzed using Tris-buffered saline (pH 7.4) containing 0.01% DMSO as the running buffer and a flow rate of 30 μL min^–1. The kinetics of the suomilide interaction with the trypsins were measured by varying suomilide concentrations from 250 to 4000 nM with a contact time of 5 min and a dissociation phase of 20 min. After the completion of the dissociation phase, the flow cells were regenerated with 10 mM Glycine, pH 1.7. The data were evaluated by first subtracting the sensorgrams obtained from the trypsin-3 mutant control flow cell from those obtained from the flow cells containing trypsin-1 or -3 for each suomilide concentration separately and overlaying the resulting sensorgrams for each ligand. Association and dissociation rate constants were obtained by the Langmuir global fit model (BiaEvaluation Software, Cytiva). The residence time was calculated as a reciprocal of the […].

Assay [11] addresses T4, trypsin-3. Described as above. The class given is binding. As to conditions: SPR. The procedure:
as §2

The subject of assay [12] is PC-3M prostate cancer cells. As to the kind of experiment: Transwell cell invasion assay through Matrigel. Format: cell-based, human. Particulars: 3.3 μM, 4 days, Transwell with Matrigel. As for the experimental part:
(§3) PC-3M prostate cancer cells[46] were cultured in Ham’s F12 Nutrient Mix with GlutaMAX (Gibco), supplemented with 10% fetal calf serum (FCS), 100 IU mL^–1 penicillin, 100 μg mL^–1 streptomycin, and 0.15% sodium bicarbonate at 37 °C in a humidified, CO2-controlled (5%) incubator. For the invasion assay, PC-3M cells (1.45 × 10^5) in a serum-free medium containing 0 or 3.3 μM suomilide were added into polycarbonate membrane Transwell inserts with 8.0 μm pore size (Thermo Fisher) covered with 100 μL of the phenol red-free Matrigel basement membrane matrix (Corning) diluted 1:30 with phosphate-buffered saline. The inserts were placed into a 24-well plate containing 750 μL of the culture medium with 10% FCS and incubated for 4 days at 37 °C in a humidified, CO2-controlled (5%) incubator. Matrigel and the noninvasive cells were removed using cotton swabs, and the membranes were stained with 0.09% crystal violet for 10 min. The experiment was performed twice, both with four replicates (n = 2). The invasion was quantitated from microscopic images (three panels from each of the replicates) using Fiji ImageJ. […] After 3 days, 10 μL/well CCK-8 solution (Cell Counting Kit-8, Dojindo) was added, and absorbance at 450 nm was measured after 1.5 h incubation. […]

The subject of assay [13] is PC-3M prostate cancer cells. Description: Cell proliferation assay (CCK-8). Format: cell-based, human. Particulars: 3.3 μM, 3 days, cells on plastic surface. The procedure: as §3
Assay [14] has as its system unspecified but most likely non-human trypsin isoenzyme. On the set-up: method as in doi:10.1016/s0040-4039(97)01193-3. As to conditions: cited from earlier work.
Assay [15] relates to thrombin. On the set-up: method as in doi:10.1016/s0040-4039(97)01193-3. Particulars: cited from earlier work.
Assay [16] relates to plasmin. Set-up: method as in doi:10.1016/s0040-4039(97)01193-3. Particulars: cited from earlier work.

Entries after “also recorded” stand apart in the source; their conditions may differ.

T1 sequence (P00742 235-488 limits assumed): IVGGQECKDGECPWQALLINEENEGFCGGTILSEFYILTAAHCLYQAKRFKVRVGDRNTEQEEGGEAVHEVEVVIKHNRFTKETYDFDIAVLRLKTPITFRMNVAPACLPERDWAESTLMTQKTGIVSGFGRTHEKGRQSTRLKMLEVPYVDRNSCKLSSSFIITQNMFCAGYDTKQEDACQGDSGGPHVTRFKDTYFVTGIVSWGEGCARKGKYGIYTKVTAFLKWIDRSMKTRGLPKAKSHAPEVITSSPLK
T1 sequence (P00742 41-179 partner limits assumed): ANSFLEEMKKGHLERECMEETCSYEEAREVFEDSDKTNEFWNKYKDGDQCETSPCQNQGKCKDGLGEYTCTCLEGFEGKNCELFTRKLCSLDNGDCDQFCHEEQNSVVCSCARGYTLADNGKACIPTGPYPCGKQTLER
T2 sequence (P07478 24-247): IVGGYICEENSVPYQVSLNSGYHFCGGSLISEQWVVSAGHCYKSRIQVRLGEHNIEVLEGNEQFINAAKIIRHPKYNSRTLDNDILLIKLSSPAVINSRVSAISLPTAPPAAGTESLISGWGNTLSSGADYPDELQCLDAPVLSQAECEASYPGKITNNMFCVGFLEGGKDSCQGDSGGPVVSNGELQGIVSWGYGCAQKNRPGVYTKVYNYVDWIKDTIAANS

With `N=C(N)c1ccc(/N=N/Nc2ccc(C(=N)N)cc2)cc1` [diminazene], the “inhibition of human trypsins (concentration range)” value in assay [1] was “micromolar concentrations”.
On to `CCCCCC(=O)OCC1OC(OC2CC3C(O)C4(C2)OC(=O)NC4C(C(=O)NCCC2=CCN(C(=N)N)C2)N3C(=O)C(NC(=O)C(COS(=O)(=O)O)OC)C(C)CC)C(OC(=O)CCCCC)C(O)C1O` (stereo not drawn) [suomilide], for which the IC50 amounted to 114 ± 2 nM in assay [2]; 4.7 nM in [3]; 104 nM in assay [4]; 11.5 nM in assay [5]; 7.6 ± 2.3 nM in assay [6]; 82 ± 24 nM in assay [7]. The IC50 in assay [8] is 7100 ± 1360 nM; in assay [9] it was more than 12500 nM; in [14] (unspecified, most likely non-human trypsin) it was 1800 nM. Further, the kon came to 33000 M⁻¹ s⁻¹ in assay [10] (immobilized trypsin-1, Langmuir global fit, read-out: ka (association rate constant), trypsin-1) and 12000 M⁻¹ s⁻¹ in assay [11] (immobilized trypsin-3, Langmuir global fit, read-out: ka (association rate constant), trypsin-3). Besides, the koff in assay [10] (immobilized trypsin-1, Langmuir global fit, read-out: kd (dissociation rate constant), trypsin-1) stood at 0.011 s⁻¹; in assay [11] (immobilized trypsin-3, Langmuir global fit, read-out: kd (dissociation rate constant), trypsin-3), 0.00029 s⁻¹. Moreover, the residence time in [10] (calculated as reciprocal of the dissociation constant, read-out: residence time (τ), trypsin-1) is 1.5 min; in assay [11] (calculated as reciprocal of the dissociation constant, read-out: residence time (τ), trypsin-3), 57 min. In assay [12], the “effect on PC-3M cell invasion” value was “inhibited the invasion; also recorded: significantly inhibited”. Moreover, the “effect on PC-3M cell proliferation” value in assay [13] is on record as “without affecting cell proliferation; also recorded: did not affect”. Also, the “inhibition of trypsin (concentration range)” value in assay [14] was “low micromolar concentrations”. Besides, the “inhibition of thrombin (concentration range)” value in [15] is reported as “low micromolar concentrations”. The “inhibition of plasmin (concentration range)” value in assay [16] is on record as “low micromolar concentrations”.

The values are drawn from PMC8609519, “Potent Inhibitor of Human Trypsins from the Aeruginosin Family of Natural Products” (ACS Chemical Biology, 2021).
